From patent publication US20230172994A1, “METHODS OF PROMOTING VASCULOGENESIS” (TissueTech, Inc., priority 2019, published 2023)
Blank lines part the entries; values can stand above or below the molecule they belong to.

Columns and labels:
Type in all cases: cell-based, human
P4 LNC [1] = assay: Immunofluorescence staining (cytospin), nuclear translocation
Protocol: Cell culture: For time course study, 1×10^5/ml of P4 LNC were seeded on substrates HA or HC-HA/PTX3 in MESCM at 5, 15, 30, 60 min, 24 h and 48 h (Table 3).
Immunostaining: LNC then were subjected to cytospin to determine nuclear translocation of HIF1α, HIF1β, HIF2α, SDF-1, CXCR4, and Hes1 at 5, 15, 30 and 60 min.

HUVEC or pericytes (LNC) = assay: Cell proliferation by Edu nuclear staining; conditions: HUVEC or pericytes (LNC) alone
Excerpt: Cells: GFP HUVEC (P3) were purchased from Neuromics (Cat #GF01). These cells were isolated from normal human umbilical vein and transfected with GFP-lentiviral particle at passage 1. Puromycin resistant GFP HUVEC were maintained on fibronectin coated solution in Endo-growth medium containing 5% FBS and growth supplement until passage 3. Cells were split 1:3 every three days when ˜70%-90% confluence is reached. Cells of passage 3-8 were used for all experiments.
LNC (P2-P5) was expanded in MESCM containing 4 ng/ml bFGF and 10 ng/ml LIF on 6-well plastic coated with 5% Matrigel™

P10 LNC [2] = assay: Cell aggregation / sphere formation by phase contrast microscopy
Protocol: (§1) Cell culture: For time course study, 1×10^5/ml of P10 LNC was seeded on three substrates: 3D Matrigel™, HA, or HC-HA/PTX3 in MESCM at 5, 15, 30, 60 mins, 24 h and 48 h (Table 2).
For expansion, single cells derived from limbal clusters or CSC after digestion with 0.25% trypsin and 1 mM EDTA (T/E) were seeded at 1×10^4/cm^2 in the 6-well plate pre-coated with 5% Matrigel™ in MESCM and cultured in humidified 5% CO2 with media change every 3-4 days for total 6-7 days. For cells culture in three-dimensional (3D) Matrigel, Matrigel was prepared by adding 50% Matrigel diluted in MESCM per chamber of an 8-well chamber slide following incubation at 37° C. for 60 min. LNC cells were seeded in 3D Matrigel and cultured for 24 h or 48 h in MESCM.
(§2) For the siRNA knockdown, 80% confluent P10 LNC on 6-well coated MG were subjected to transfection by mixing 200 μL of serum-free, antibiotic-free MESCM with 4 μL of HiPerFect siRNA transfection reagent (Final dilution, 1:300) and 6 μL of 20 μM of scRNA or siRNAs for BMPR1A, BMPR1B, BMPR2, and ACVR1 at the final concentration of 100 nM, drop-wise, followed by culturing in 1 mL of fresh MESCM at 37° C. for 24 h before soluble HC-HA/PTX3 was added at a final concentration of 20 μg/mL in MESCM.

Rac1 = assay: Rho GTPase activity in LNC; conditions: within 60 minutes, HC-HA/PTX3 active at 5 and 15 min, reduced at 30 min
P10 LNC [3] = assay: Immunofluorescence staining (cytospin), nuclear translocation
Protocol: Immunostaining: LNC were then subjected to cytospin to determine nuclear translocation of HIF1α, HIF1β, HIF2α, SDF-1, CXCR4, and Hes1 at 5, 15, 30 and 60 mins.
Single cells of LNC or CSC at different passages were harvested with 0.05% trypsin and 1 mM EDTA at 37° C. for 10 min and prepared for cytospin using Cytofuge (StatSpin Inc., Norwood, Mass.) at 1000 g for 8 min. Cells were fixed with 4% formaldehyde, pH 7.0, for 15 min at room temperature, permeabilized with 0.2% Triton X-100 in PBS for 15 min and blocked with 2% bovine serum albumin (BSA) for 1 h before incubated with primary antibodies for 16 h at 4° C. After 3 washes with PBS, the corresponding Alexa Fluor-conjugated secondary IgG (all 1:100 dilution) were incubated for 60 min and 3 washing with PBS. After 3 washes with PBS, the second primary antibodies were incubated for 60 min and followed with the corresponding Alex Fluor-conjugated secondary IgG. The nucleus was counterstained with Hoechst 33342 before being analyzed with Zeiss LSM 700 confocal microscope (Carl Zeiss, Thornwood, N.Y.). Corresponding mouse and rabbit sera were used as negative controls for primary monoclonal and polyclonal antibodies, respectively.

P10 LNC [4] = assay: Subcellular fractionation and Western blotting
Protocol: Nuclear and cytoplasmic fractions were prepared using the NE-PER® Nuclear and Cytoplasmic Extraction Reagents Kit (Pierce, Rockford, Ill., USA) as per manufacturer's instruction. Briefly, the treated P10 LNC were washed once on cold PBS and centrifuged at 500 g for 5 min.
The cell pellet was suspended in 100 μL of cytoplasmic extraction reagent I containing protease inhibitor by vortexing. The suspension was incubated on ice for 10 min followed by the addition of 6 μL of a second cytoplasmic extraction reagent II, vortexed for 5s, incubated on ice for 1 min and centrifuged for 5 min at 16 000 g. The supernatant fraction (cytoplasmic extract) was transferred to a pre-chilled tube. The insoluble pellet fraction, which contains crude nuclei, was resuspended in 50 μL of nuclear extraction reagent by vortexing during 15s three times and incubated on ice for 10 min each, then centrifuged for 10 min at 16 000 g. The resulting supernatant, constituting the nuclear extract, was used for the subsequent experiments. Protein concentration was quantitated using the BCA protein assay kit (Pierce). […] Immunoreactive proteins were detected with Western Lighting Chemiluminescence (PerkinElmer, Waltham, Mass.) and images captured by GE ImageQuant LAS 4000 (GE Healthcare Biosciences, Pittsburgh, Pa.).

P10 LNC [5] = assay: Time course mRNA expression by qPCR
Protocol: as §1
qPCR: Comparisons were made of mRNA expression of HIF1α, HIF1β, HIF2α, SDF-1, CXCR4, Hes1 at 5, 15, 30, 60, 120, 240 min or 24 and 48 h.
Cell culture: 1×10^5/ml of P10 LNC was seeded on three substrates: 3D Matrigel™ HA, or HC-HA/PTX3 in MESCM for 48 h. For time course study on HC-HA/PTX3, P10 LNC will be treated HC-HA/PTX3 for 5, 15, 30, 60 mins, 24 h and 48 h.
qPCR: Comparison mRNA expression VEGF, PDGFα, CD31 and IGF-1 for angiogenesis and NGF and p75^NTR for neurogenesis at 5, 15, 30, 60, 120, 240 min 24 or 48 h on 3D MG, immobilized HA and immobilized HC-HA/PTX3.
as §2
Total RNAs were extracted from expanded LNC by RNeasy Mini Kit (Qiagen, Valencia, Calif.) according to manufacturer's guideline and 1-2 ug of RNA extract was reverse transcribed to cDNA with reverse-transcribed using Applied Biosystem™ High Capacity Reverse Transcription Kit (Thermo Fisher, Santa Clara, Calif.) using primers. The resultant cDNAs were amplified by specific TaqMan gene expression assay mix and universal PCR master mix in QuantStudio™ 5 Real Time PCR System (Thermo Fisher, Santa Clara, Calif.) with real-time RT-PCR profile consisting of 10 min of initial activation at 95° C., followed by 40 cycles of 15 sec denaturation at 95° C., and 1 min annealing and extension at 60° C. […] Threshold cycle number (Ct) was calculated with QuantStudio Design and. […] The relative gene expression data were analyzed by the comparative CT method (ΔΔCT). […]

LEPC and LNC = assay: Blocking Notch signaling in LEPC+LNC on immobilized HC-HA/PTX3
Protocol: FIGS. 41A-41C illustrate blocking Notch signaling inhibits BMP and non-canonical Wnt in LEPC and LNC on immobilized HC-HA/PTX3 at 48 hours. FIG. 41A illustrates a graph of mRNA levels of various genes following treatment of HC-HA/PTX3 and HC-HA/PTX3/DAPT in LNCS renunioned with LEPC. FIG. 41B illustrates immunostaining with various markers.

P4 LNC [6] = assay: Notch signaling and transcript expression in P4 LNC on plastic, 3D Matrigel or immobilized HC-HA/PTX3

Rac1 GTPase activities (Rac1): gradual decline
Molecule: hyaluronic acid [HA]
HIF2α (P4 LNC [1]): No changes
NICD and SDF1 (P4 LNC [1]): No changed
time of HIF1α nuclear translocation (P4 LNC [1]): did the same
time of HIF1β nuclear translocation (P4 LNC [1]): 5 to 30 min
time of Hes1 nuclear translocation (P4 LNC [1]): 5 to 15 min
CXCR4 nuclear translocation (P4 LNC [1]; 5, 30 min, transient): does not
cell proliferation (Edu nuclear staining) (HUVEC or pericytes (LNC)): promoted cell proliferation
cell aggregation as early as 60 min (P10 LNC [2]): not
nuclear PP2A C subunit (P10 LNC [3]; 5 and 30 min, comparators entire 60 min): significantly less expression
CXCR4 localisation (P10 LNC [3]; HC-HA/PTX3: as early as 15 min, prominent at 30 min, no longer nuclear at 60 min): membrane translocation
staining of HIF1α and HIF1β (P10 LNC [3]; HC-HA/PTX3: at 5 min, HIF1α sustained till 15 and 30 min): both cytoplasmic and nuclear
nuclear p-PHD2 (serine 125) (P10 LNC [3]; HC-HA/PTX3 at 5 and 15 min, HA and 3D MG throughout 60 min): maintained nuclear Phospho-PHD2
earliest nucleus Hes1 (P10 LNC [3]; P10 LNC): 15 min

Molecule: c1cc(CN2CCCNCCNCCCNCC2)ccc1CN1CCCNCCNCCCNCC1 [AMD3100]
CXCR4 staining (P10 LNC [3]; 60 min period, P10 LNC, soluble HC-HA/PTX3 with or without AMD3100, or 3D MG): reverted to that of 3D MG
nuclear staining of pSmad1/5 (P10 LNC [3]; P10 LNC, soluble HC-HA/PTX3 with or without AMD3100): absent nuclear staining
immunofluorescence of SDF-1 (P10 LNC [3]; throughout 60 min): became negative
nuclear pSmad1/5 (P10 LNC [4]; 5, 15, 30 min): not promoted
CXCR4 and Pax6 protein in cytoplasmic and nuclear fractions (P10 LNC [4]; 15 and 30 min, AMD3100 all time points): remain in cytoplasmic fraction
HIF-1α and HIF-1β transcripts (P10 LNC [5]; addition of AMD3100): upregulated two peaks
transcript levels of BMP2, BMP4 and BMP6, effect of inhibitor (P10 LNC [5]; throughout 48 h, with soluble HC-HA/PTX3): aborted
Pax6, p75NTR, NGF, Musashi-1, Msx-1 and FoxD3 transcripts, effect of inhibitor (P10 LNC [5]; with soluble HC-HA/PTX3): significant downregulation

Molecule: C[C@H](NC(=O)Cc1cc(F)cc(F)c1)C(=O)N[C@H](C(=O)OC(C)(C)C)c1ccccc1 [DAPT]
nuclear psmad/1/5/8 and c-Jun (LEPC and LNC; LEPC+LNC on immobilized HC-HA/PTX3): absence
quiescence epithelium markers (LEPC and LNC; LEPC+LNC on immobilized HC-HA/PTX3, 48 hours): significantly downregulated
cell aggregation of LNC on HC-HA/PTX3, effect of inhibitor (P4 LNC [6]): did not prevent
Notch1/2/3/Jagged 1/Hes1 signaling with MET epithelial phenotype (p63α, Pax6, Sox9), effect of inhibitor (P4 LNC [6]; LNC on HC-HA/PTX3): further promoted
